Data from ChEMBL document CHEMBL1126700, “Synthesis and serotonergic activity of 5-(oxadiazolyl)tryptamines: potent agonists for 5-HT1D receptors” (J Med Chem, 1993).

What was measured:
[1] = Partition coefficient (logD7.4); conditions: octanol/water, pH 7.4
[2] = target: 5-hydroxytryptamine receptor 1D (Sus scrofa, UniProt P79400); experiment: Displacement of radioligand [3H]5-HT binding to 5-hydroxytryptamine 1D receptor in pig caudate membrane; assay type: cell membranes
[3] = target: Serotonin 2 (5-HT2) receptor (Rattus norvegicus, UniProt P30994+P08909+P14842); experiment: isplacement of [3H]DOB from rat cortex homogenate 5-hydroxytryptamine 2 receptor
[4] = target: T1, Serotonin 3 (5-HT3) receptor (Rattus norvegicus, UniProt P35563+Q9JJ16); experiment: Displacement of [3H]-Q-ICS 205-930 from rat cortex homogenate 5-hydroxytryptamine 3 receptor
T1 sequence (P35563 whole entry): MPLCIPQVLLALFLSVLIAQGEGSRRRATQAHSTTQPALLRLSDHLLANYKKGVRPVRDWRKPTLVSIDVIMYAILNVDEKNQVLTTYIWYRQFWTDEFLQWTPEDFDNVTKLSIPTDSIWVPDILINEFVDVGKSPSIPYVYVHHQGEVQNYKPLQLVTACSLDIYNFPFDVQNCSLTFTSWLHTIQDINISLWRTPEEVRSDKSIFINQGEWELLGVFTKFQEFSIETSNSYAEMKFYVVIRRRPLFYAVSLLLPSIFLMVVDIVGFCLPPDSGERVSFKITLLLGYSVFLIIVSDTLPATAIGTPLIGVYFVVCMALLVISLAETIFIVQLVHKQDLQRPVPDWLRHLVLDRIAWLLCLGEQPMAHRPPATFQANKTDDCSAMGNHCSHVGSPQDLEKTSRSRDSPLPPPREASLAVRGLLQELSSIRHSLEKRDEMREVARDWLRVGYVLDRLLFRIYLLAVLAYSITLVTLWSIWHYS
T1 sequence (Q9JJ16 whole entry): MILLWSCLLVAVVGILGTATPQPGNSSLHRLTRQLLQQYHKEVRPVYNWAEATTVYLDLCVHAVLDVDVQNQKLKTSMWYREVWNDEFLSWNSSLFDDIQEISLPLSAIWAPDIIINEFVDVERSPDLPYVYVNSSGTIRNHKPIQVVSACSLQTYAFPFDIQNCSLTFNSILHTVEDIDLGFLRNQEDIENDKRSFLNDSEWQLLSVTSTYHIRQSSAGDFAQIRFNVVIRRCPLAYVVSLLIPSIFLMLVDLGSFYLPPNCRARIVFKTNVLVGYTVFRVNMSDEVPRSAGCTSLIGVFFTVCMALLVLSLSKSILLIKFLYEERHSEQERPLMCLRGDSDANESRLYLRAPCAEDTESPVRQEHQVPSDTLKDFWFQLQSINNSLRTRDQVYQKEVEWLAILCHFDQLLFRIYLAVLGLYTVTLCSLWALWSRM

Oryctolagus cuniculus [5] = species: Oryctolagus cuniculus; experiment: Relative maximum is the relative efficacy for serotonergic activity on rabbit saphenous vein with respect to 1 uM 5-HT; assay type: functional
Oryctolagus cuniculus [6] = species: Oryctolagus cuniculus; experiment: Serotonergic activity was assessed in vitro on the New Zealand white rabbit saphenous vein preparation; assay type: functional
Oryctolagus cuniculus [7] = species: Oryctolagus cuniculus; experiment: Relative maximum is the relative efficacy with respect to 1 uM 5-HT; assay type: functional

5-hydroxytryptamine receptor 1D, sequence (P79400 whole entry): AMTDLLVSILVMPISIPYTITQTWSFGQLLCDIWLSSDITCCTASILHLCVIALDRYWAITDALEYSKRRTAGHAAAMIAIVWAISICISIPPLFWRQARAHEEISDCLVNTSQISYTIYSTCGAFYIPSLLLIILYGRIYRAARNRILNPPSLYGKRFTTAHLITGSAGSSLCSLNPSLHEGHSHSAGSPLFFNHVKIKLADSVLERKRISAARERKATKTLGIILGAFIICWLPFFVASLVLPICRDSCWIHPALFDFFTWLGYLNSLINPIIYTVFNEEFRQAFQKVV

SMILES	logD [1]	IC50 [2] [nM]	pIC50 [3]	IC50 [4] [nM]	other results
CNS(=O)(=O)Cc1ccc2[nH]cc(CCN(C)C)c2c1	-1.17	–	–	–	–
NCCc1c[nH]c2ccc(C(N)=O)cc12	–	3.98	–	–	–
CN(C)CCc1c[nH]c2ccc(-c3nc(Cc4ccc(NS(C)(=O)=O)cc4)no3)cc12	1.25	1.26	–	–	–
NCCc1c[nH]c2ccc(-c3nc(Cc4ccccc4)no3)cc12	1.32	6.31	5.9	> 10000	–
CNC(=O)c1ccc(-c2noc(-c3ccc4[nH]cc(CCN)c4c3)n2)cc1	–	0.794	–	–	–
Cc1noc(CCCc2ccc3[nH]cc(CCN)c3c2)n1	–	5.01	–	–	–
CCc1noc(-c2ccc3[nH]cc(CCN)c3c2)n1	0.13	12.6	–	–	–
CC(=O)Nc1ccc(Cc2noc(-c3ccc4[nH]cc(CCN)c4c3)n2)cc1	0.48	0.501	6.4	> 10000	Relative maximum (Oryctolagus cuniculus [5]): 1; EC50 (Oryctolagus cuniculus [6]): 12.6 nM
NCCc1c[nH]c2ccc(-c3nc(N)no3)cc12	-0.72	50.1	–	–	–
NCCc1c[nH]c2ccc(Cc3nc(Cc4ccccc4)no3)cc12	0.42	31.6	–	–	–
COc1ccccc1Cc1noc(-c2ccc3[nH]cc(CCN)c3c2)n1	1.38	15.8	–	–	–
NCCc1c[nH]c2ccc(Cc3nc(-c4ccccc4)no3)cc12	–	20	–	–	–
CN(C)CCc1c[nH]c2ccc(CCc3nc(N)no3)cc12	–	12.6	6.7	6310	EC50 (Oryctolagus cuniculus [6]): 200 nM
CN(C)CCc1c[nH]c2ccc(-c3nc(Cc4ccccc4)no3)cc12	–	6.31	–	–	–
CS(=O)(=O)Nc1ccc(Cc2noc(Cc3ccc4[nH]cc(CCN)c4c3)n2)cc1	-0.54	3.16	–	–	–
CN(C)CCc1c[nH]c2ccc(-c3nc(N)no3)cc12	0.2	79.4	–	–	–
Cc1noc(-c2ccc3[nH]cc(CCN)c3c2)n1	-0.37	10	5.8	> 10000	Relative maximum (Oryctolagus cuniculus [5]): 1; EC50 (Oryctolagus cuniculus [6]): 251 nM
CC(=O)NCc1noc(-c2ccc3[nH]cc(CCN)c3c2)n1	–	20	–	–	–
NCCc1c[nH]c2ccc(Cc3nc(N)no3)cc12	–	20	6.1	> 10000	EC50 (Oryctolagus cuniculus [6]): 158 nM
CN(C)CCc1c[nH]c2ccc(Cc3nc(N)ns3)cc12	–	2	6.9	2400	Relative maximum (Oryctolagus cuniculus [5]): 1.1

SMILES	logD [1]	IC50 [2] [nM]	pIC50 [3]	IC50 [4] [nM]	other results
NCCc1c[nH]c2ccc(CCCc3nc(Cc4ccccc4)no3)cc12	–	1.58	–	–	–
CNC(=O)c1ccc(-c2noc(Cc3ccc4[nH]cc(CCN(C)C)c4c3)n2)cc1	1.45	2	–	–	–
NCCc1c[nH]c2ccc(-c3nc(C4CC4)no3)cc12	0.6	7.94	5.6	> 10000	–
CN(C)CCc1c[nH]c2ccc(CCCc3nc(Cc4ccccc4)no3)cc12	–	12.6	–	–	–
CN(C)CCc1c[nH]c2ccc(Cc3nc(-c4ccc(NS(C)(=O)=O)cc4)no3)cc12	–	10	–	–	–
Cc1cnc(-c2ccc3[nH]cc(CCN(C)C)c3c2)o1	–	7.94	–	–	–
NCCc1c[nH]c2ccc(CCc3nc(N)no3)cc12	-1.51	10	–	–	–
CC(=O)Nc1ccc(Cc2noc(Cc3ccc4[nH]cc(CCN)c4c3)n2)cc1	-0.36	2.51	–	–	–
CN(C)CCc1c[nH]c2ccc(Cc3nc(N)no3)cc12	–	25.1	6.4	2510	–
Cc1noc(Cc2ccc3[nH]cc(CCN(C)C)c3c2)n1	–	50.1	5.6	3980	–
COc1ccc(Cc2noc(-c3ccc4[nH]cc(CCN)c4c3)n2)cc1	–	0.794	6	> 10000	–
CNS(=O)(=O)c1ccc(Cc2noc(-c3ccc4[nH]cc(CCN)c4c3)n2)cc1	0.25	0.251	–	–	Relative maximum (Oryctolagus cuniculus [5]): 0.9; EC50 (Oryctolagus cuniculus [6]): 12.6 nM
NCCc1c[nH]c2ccc(CCc3nc(Cc4ccccc4)no3)cc12	–	5.01	6.6	> 10000	–
Cc1noc(Cc2ccc3[nH]cc(CCN)c3c2)n1	-1.7	31.6	5.5	> 10000	–
CN(C)CCc1c[nH]c2ccc(Cc3nc(Cc4ccc(NS(C)(=O)=O)cc4)no3)cc12	0.5	31.6	–	–	–
COc1cccc(Cc2noc(-c3ccc4[nH]cc(CCN)c4c3)n2)c1	–	1.26	–	–	–
NCCc1c[nH]c2ccc(-c3nc(-c4ccccc4)no3)cc12	–	79.4	–	–	–
CN(C)CCc1c[nH]c2ccc(CCc3nc(Cc4ccccc4)no3)cc12	–	12.6	–	–	–
CS(=O)(=O)Nc1ccc(Cc2noc(-c3ccc4[nH]cc(CCN)c4c3)n2)cc1 [L-694247]	0.25	0.316	6.5	> 10000	Relative maximum (Oryctolagus cuniculus [5]): 1; EC50 (Oryctolagus cuniculus [6]): 15.8 nM
NCCc1c[nH]c2ccc(O)cc12 [SEROTONIN]	–	10	–	–	Relative maximum (Oryctolagus cuniculus [7]): 1
